The text below walks through data of patent publication US20260020569A1, “PESTICIDALLY ACTIVE THIOSEMICARBAZONE COMPOUNDS” (BASF SE, priority 2021, published 2026).

Common to all, as to assay type: in vivo
For assay [1], the system named is yellow fever mosquito (Aedes aegypti). Kind of assay: whole plant or invertebrate. As to conditions: 48 h, larval mortality visually assessed after 2 days, read-out: mortality in comparison with untreated controls. Here is the method: Example B1: Action on Yellow Fever Mosquito (Aedes aegypti)
For evaluating control of yellow fever mosquito (Aedes aegypti) the test unit consisted of 96-well-microtiter plates containing 200 μl of tap water per well and 5-15 freshly hatched A. aegypti larvae.
The active compounds or mixtures were formulated using a solution containing 75% (v/v) water and 25% (v/v) DMSO. Different concentrations of formulated compounds or mixtures were sprayed onto the insect diet at 2.5 μl, using a custom built micro atomizer, at two replications. For experimental mixtures in these tests identical volumes of both mixing partners at the desired concentrations respectively, were mixed together.
After application, microtiter plates were incubated at 28±1° C., 80±5% RH for 2 days. Larval mortality was then visually assessed.

The test system of assay [2] is Southern armyworm (Spodoptera eridania), 2nd instar larvae. Put plainly: Action on southern armyworm (Spodoptera eridania), 2nd instar larvae on sprayed lima bean plants. To be noted: 96 h, 2nd instar larvae on lima bean plants, 4 days after treatment, read-out: mortality in comparison with untreated controls. How it is done:
Example B7: Action on Southern Armyworm (Spodoptera eridania), 2nd Instar Larvae
The active compounds were formulated by a Tecan liquid handler in 100% cyclohexanone as a 10,000 ppm solution supplied in tubes. The 10,000 ppm solution was serially diluted in 100% cyclohexanone to make interim solutions. These served as stock solutions for which final dilutions were made by the Tecan in 50% acetone:50% water (v/v) into 10 or 20 ml glass vials. A nonionic surfactant (Kinetic®) was included in the solution at a volume of 0.01% (v/v). The vials were then inserted into an automated electrostatic sprayer equipped with an atomizing nozzle for application to plants/insects.
Lima bean plants (variety Sieva) were grown 2 plants to a pot and selected for treatment at the 1st true leaf stage. Test solutions were sprayed onto the foliage by an automated electrostatic plant sprayer equipped with an atomizing spray nozzle. The plants were dried in the sprayer fume hood and then removed from the sprayer. Each pot was placed into perforated plastic bags with a zip closure. About 10 to 11 armyworm larvae were placed into the bag and the bags zipped closed. Test plants were maintained in a growth room at about 25° C. and about 20-40% relative humidity for 4 days, avoiding direct exposure to fluorescent light (24 hour photoperiod) to prevent trapping of heat inside the bags. Mortality and reduced feeding were assessed 4 days after treatment, compared to untreated control plants.

For assay [3], the system named is tobacco budworm (Heliothis virescens). Put plainly: Action on tobacco budworm (Heliothis virescens), eggs on insect diet in microtiter plates. To be noted: 120 h, egg and larval mortality after 5 days, read-out: mortality in comparison with untreated controls. Here is the method:
Example B5: Action on Tobacco Budworm (Heliothis virescens)
For evaluating control of tobacco budworm (Heliothis virescens) the test unit consisted of 96-well-microtiter plates containing an insect diet and 15-25 H. virescens eggs.
The compounds were formulated using a solution containing 75% v/v water and 25% v/v DMSO. Different concentrations of formulated compounds were sprayed onto the insect diet at 10 μl, using a custom-built micro atomizer, at two replications.
After application, microtiter plates were incubated at about 28+1° C. and about 80+5% relative humidity for 5 days. Egg and larval mortality were then visually assessed.

In assay [4] the test system is boll weevil (Anthonomus grandis). Kind of assay: Action on boll weevil (Anthonomus grandis), eggs on insect diet in microtiter plates. To be noted: 120 h, egg and larval mortality after 5 days, read-out: mortality in comparison with untreated controls. How it is done:
Example B3: Action on Boll Weevil (Anthonomus grandis)
For evaluating control of boll weevil (Anthonomus grandis) the test unit consisted of 96-well-microtiter plates containing an insect diet and 5-10 A. grandis eggs.
The compounds were formulated using a solution containing 75% (v/v) water and 25% (v/v) DMSO. Different concentrations of formulated compounds were sprayed onto the insect diet at 5 μl, using a custom built micro atomizer, at two replications.
After application, microtiter plates were incubated at about 25+1° C. and about 75+5% relative humidity for 5 days. Egg and larval mortality were then visually assessed.

For assay [5], the system named is Diamond back moth (Plutella xylostella). Put plainly: Action on diamond back moth (Plutella xylostella), cabbage leaf dip. As to conditions: foliar, 3rd instar larvae on cabbage leaves, 72 hours after treatment, read-out: mortality in comparison with untreated controls. Here is the method:
Example B6: Action on Diamond Back Moth (Plutella xylostella)
The active compound is dissolved at the desired concentration in a mixture of 1:1 (v/v) distilled water:acetone. Surfactant (Kinetic® HV) is added at a rate of 0.01% (v/v). The test solution is prepared at the day of use.
Leaves of cabbage were dipped in test solution and air-dried. Treated leaves were placed in petri dishes lined with moist filter paper and inoculated with ten 3rd instar larvae. Mortality was recorded 72 hours after treatment. Feeding damages were also recorded using a scale of 0-100%.

Assay [6] relates to Orchid thrips (Dichromothrips corbetti). Kind of assay: Action on orchid thrips (Dichromothrips corbetti), floral-immersion technique. To be noted: adult thrips, 72 hours after treatment, read-out: mortality in comparison with untreated controls. Here is the method:
Example B2: Action on Orchid Thrips (Dichromothrips corbetti)
Dichromothrips corbetti adults used for bioassay were obtained from a colony maintained continuously under laboratory conditions. For testing purposes, the test compound is diluted in a 1:1 mixture of acetone:water (vol:vol), plus Kinetic® HV at a rate of 0.01% v/v.
Thrips potency of each compound was evaluated by using a floral-immersion technique. All petals of individual, intact orchid flowers were dipped into treatment solution and allowed to dry in Petri dishes. Treated petals were placed into individual re-sealable plastic along with about 20 adult thrips. All test arenas were held under continuous light and a temperature of about 28° C. for duration of the assay. After 3 days, the numbers of live thrips were counted on each petal. The percent mortality was recorded 72 hours after treatment.

Assay [7] concerns Silverleaf whitefly (Bemisia argentifolii) (adults). Put plainly: Action on silverleaf whitefly (Bemisia argentifolii) adults on sprayed cotton plants. To be noted: 72 h, 3 days after treatment, read-out: mortality in comparison with untreated controls. Here is the method: Example B4: Action on Silverleaf Whitefly (Bemisia argentifolii) (Adults)
The active compounds were formulated by a Tecan liquid handler in 100% cyclohexanone as a 10,000 ppm solution supplied in tubes. The 10,000 ppm solution was serially diluted in 100% cyclohexanone to make interim solutions. These served as stock solutions for which final dilutions were made by the Tecan in 50% acetone:50% water (v/v) into 5 or 10 ml glass vials. A non-ionic surfactant (Kinetic®) was included in the solution at a volume of 0.01% (v/v). The vials were then inserted into an automated electrostatic sprayer equipped with an atomizing nozzle for application to plants/insects.
Cotton plants at the cotyledon stage (one plant per pot) were sprayed by an automated electrostatic plant sprayer equipped with an atomizing spray nozzle. The plants were dried in the sprayer fume hood and then removed from the sprayer. Each pot was placed into a plastic cup and about 10 to 12 whitefly adults (approximately 3-5 days old) were introduced. The insects were collected using an aspirator and a nontoxic Tygon® tubing connected to a barrier pipette tip. The tip, containing the collected insects, was then gently inserted into the soil containing the treated plant, allowing insects to crawl out of the tip to reach the foliage for feeding. Cups were covered with a reusable screened lid. Test plants were maintained in a growth room at about 25° C. and about 20-40% relative humidity for 3 days, avoiding direct exposure to fluorescent light (24 hour photoperiod) to prevent trapping of heat inside the cup. Mortality was assessed 3 days after treatment, compared to untreated control plants.

As a reminder, the mortality is the percentage killed.

For the molecule `COCCOCCOCCOC(=O)OCS/C(=N\N=C\c1ccc(-n2cc(NC(=O)c3ccc(OC(F)(F)F)cc3)c(C)n2)cc1)Nc1cc(C)ccc1C(C)C` [Compound C-5, [(Z)—N-(2-isopropyl-5-methyl-phenyl)-N′-[(E)-[4-[3-methyl-4-[[4-(trifluoromethoxy)benzoyl]amino]pyrazol-1-yl]phenyl]methyleneamino]carbamimidoyl]sulfanylmethyl 2-[2-(2-methoxyethoxy)ethoxy]ethyl carbonate], the mortality at 800 ppm in assay [1] was at least 50%; in assay [3], at least 75%; in assay [4], at least 75%. Moreover, the mortality at 300 ppm in assay [2] and in assay [7] was at least 75% in each case. For the same molecule, the mortality at 500 ppm in assay [5] and in assay [6] was at least 75% throughout.

Take `Cc1ccc(C(C)C)c(N/C(=N/N=C/c2ccc(-n3cc(NC(=O)c4ccc(OC(F)(F)F)cc4)c(C)n3)cc2)SCOC(=O)C(C)C)c1` [Compound C-6, [(Z)—N-(2-isopropyl-5-methyl-phenyl)-N′-[(E)-[4-[3-methyl-4-[[4 (trifluoromethoxy)benzoyl]amino]pyrazol-1-yl]phenyl]methyleneamino]carbamimidoyl]sulfanylmethyl 2-methylpropanoate]: the mortality at 800 ppm in assay [1] was at least 50%; in assay [3], at least 75%; in assay [4] it was at least 75%. For the same molecule, in assay [2], the mortality at 300 ppm was at least 75%. Also, the mortality at 500 ppm in assay [5] and in assay [6] was at least 75% each time.

As to `Cc1ccc(C(C)C)c(N/C(=N/N=C/c2ccc(-n3cc(NC(=O)c4ccc(OC(F)(F)F)cc4)c(C)n3)cc2)SCOC(=O)N2CCOCC2)c1` [Compound C-10, [(Z)—N-(2-isopropyl-5-methyl-phenyl)-N′-[(E)-[4-[3-methyl-4-[[4-(trifluoromethoxy)benzoyl]amino]pyrazol-1-yl]phenyl]methyleneamino]carbamimidoyl]sulfanylmethyl morpholine-4-carboxylate], in assay [2], the mortality at 300 ppm is at least 75%. Besides, the mortality at 800 ppm in assay [3] and in assay [4] was at least 75% in each case. Also, the mortality at 500 ppm in assay [5] and in assay [6] was at least 75% in each case.

`COCCOCCOCCOCCOC(=O)OCS/C(=N\N=C\c1ccc(-n2cc(NC(=O)c3ccc(OC(F)(F)F)cc3)c(C)n2)cc1C)Nc1cc(C)ccc1C(C)C` [Compound C-15, [(Z)—N-(2-isopropyl-5-methyl-phenyl)-N′-[(E)-[2-methyl-4-[3-methyl-4-[[4-(trifluoromethoxy)benzoyl]amino]pyrazol-1-yl]phenyl]methyleneamino]carbamimidoyl]sulfanylmethyl 2-[2-[2-(2-methoxyethoxy)ethoxy]ethoxy]ethyl carbonate]: the figures for the mortality at 800 ppm in assay [1], in assay [3] and in assay [4] were at least 50%, at least 75% and at least 75%, respectively. The mortality at 300 ppm in assay [2] and in assay [7] was at least 75% each time. The mortality at 500 ppm in assay [5] and in assay [6] was at least 75% in each case.

On to `Cc1ccc(C(C)C)c(N/C(=N/N=C/c2ccc(-n3cc(NC(=O)c4ccc(OC(F)(F)F)cc4)c(C)n3)cc2C)SCOC(=O)C2CCCCC2)c1` [Compound C-21, [(Z)—N-(2-isopropyl-5-methyl-phenyl)-N′-[(E)-[2-methyl-4-[3-methyl-4-[[4-(trifluoromethoxy)benzoyl]amino]pyrazol-1-yl]phenyl]methyleneamino]carbamimidoyl]sulfanylmethyl cyclohexanecarboxylate], for which the mortality at 300 ppm in assay [2] and in assay [7] was at least 75% throughout. The mortality at 800 ppm in assay [3] and in assay [4] was at least 75% in each case. The mortality at 500 ppm in assay [5] and in assay [6] was at least 75% each time.

As for `Cc1ccc(C(C)C)c(N/C(=N/N=C/c2ccc(-n3cc(NC(=O)c4ccc(OC(F)(F)F)cc4)c(C)n3)cc2C)SCOC(=O)C2CC2)c1` [Compound C-22, [(Z)—N-(2-isopropyl-5-methyl-phenyl)-N′-[(E)-[2-methyl-4-[3-methyl-4-[[4-(trifluoromethoxy)benzoyl]amino]pyrazol-1-yl]phenyl]methyleneamino]carbamimidoyl]sulfanylmethyl cyclopropanecarboxylate], the mortality at 800 ppm in assay [1] is at least 50%; in assay [3] it was at least 75%; in assay [4], at least 75%. Moreover, in assay [2], the mortality at 300 ppm is at least 75%. For the same molecule, the mortality at 500 ppm in assay [5] and in assay [6] was at least 75% in each case.

As to `COc1ccc(/C=C/C(=O)OCS/C(=N\N=C\c2ccc(-n3cc(NC(=O)c4ccc(OC(F)(F)F)cc4)c(C)n3)cc2C)Nc2cc(C)ccc2C(C)C)cc1` [Compound C-23, [(Z)—N-(2-isopropyl-5-methyl-phenyl)-N′-[(E)-[2-methyl-4-[3-methyl-4-[[4-(trifluoromethoxy)benzoyl]amino]pyrazol-1-yl]phenyl]methyleneamino]carbamimidoyl]sulfanylmethyl (E)-3-(4-methoxyphenyl)prop-2-enoate], the mortality at 300 ppm in assay [2] and in assay [7] was at least 75% in each case. Besides, the mortality at 800 ppm in assay [3] and in assay [4] was at least 75% throughout. The mortality at 500 ppm in assay [5] and in assay [6] was at least 75% each time.
